Data reported in article PMC9975698, “Hyperoside alleviates toxicity of β-amyloid via endoplasmic reticulum-mitochondrial calcium signal transduction cascade in APP/PS1 double transgenic Alzheimer's disease mice” (Redox Biology, 2023).

Experiments:
HT22 cells [1] = test: Cell membrane permeability assay (intracellular HYP by LC-MS/MS); assay type: in vitro ADME; settings: HYP 20–80 μM, 24 h
Method: HT22 cells were co-treated with Aβ aggregates and HYP (20–80 μM) for 24 h and washed with PBS for 3 times. The cell membrane was disrupted with 200 μL methanol for the collection and centrifugation of cellular content at 20,000 rpm for 10 min. The supernatant was then collected for LC-MS/MS analysis. HYP content was quantified using UHPLC-MS/MS system, which includes Agilent 1290 Infinity UHPLC, and Agilent 6460 Triple Quadrupole, equipped with an electrospray ionization interface used to generate positive ions for the determination of HYP. The compounds were analyzed by using the Agilent Zorbax Eclipse Plus C-18 column with a particle size of […] (flow rate: 0.35 mL/min). The mobile phase was set as follows: mobile phase A (0.1% formic acid in water) and mobile phase B (0.1% formic acid in ACN): 0–3 min, 10–30% B; 3–4 min, 70% B; 4–5 min, 30–70% B; 5–6 min, 70-10% B. The column and auto-sampler temperature were maintained at 30 °C and 4 °C, respectively. Data were analyzed by using Agilent MassHunter Workstation software B.01.03. The gas temperature was set at 300 °C with a flow rate of 11 L/min. Gases were set at 30 psi for the nebulizer, capillary, at 4000 V. For the HYP, the fragment was 170. The collision energy was set at 30; The mass transitions were as follows based on multiple reaction monitoring: m/z 464.38 → 299.9. For the Isorhamnetin (ISO), the fragment was 150. […]

[2] = system: Aβ oligomers, Aβ fibrils, Aβ (1–16); test: Dot blot of Aβ forms in HT22 cells; assay type: cell-based
Method: 4 μL of prepared cell or animal sample protein solutions were dotted for adsorption onto methanol-pre-activated PVDF membranes and then blocked with 5% non-fat dry milk in Tris-buffered saline and Tween 20 for 1 h. The samples were incubated overnight at 4 °C with anti-amyloid fibril primary antibody [mOC87] (Abcam, MA, USA), anti-amyloid oligomer A11 (Invitrogen, CA, USA) or purified anti-β-amyloid (1–16) antibody (clone 6E10) (Biolegend, CA, USA) (1:1000), followed by HRP-conjugated secondary antibody. Protein bands were detected using Super Signal Sensitive ECL Western Blotting Detection Reagent (Beyotime, Beijing, China) and observed using a gel imaging device (Amersham Imager 800, GE, Tokyo, Japan).

APP/PS1 mice [3] = test: Western blot of APP/GFAP/APP-β/BACE1 in cortex and hippocampus lysates; assay type: in vivo
Method: (§1) After HYP treatment, the cells were lysed with RIPA. Protein concentrations were determined by Bio-Rad protein assay (Bio-Rad Laboratories, CA, USA). After electrophoretic separation, the gels were blotted and stained with primary antibodies. Binding of antibodies was visualized with peroxidase-coupled secondary antibodies using ECL Western Blotting detection reagents (Invitrogen, Scotland, UK). Band intensities were quantified using ImageJ software. Data were obtained from three independent experiments. All animal care and experimental procedures were performed in accordance with the “Institutional Animal Care and User Committee Guidelines” of the Macau University of Science and Technology. APP/PSEN1 (APP/PS1) mice (N000175) were purchased from the Nanjing Institute of Biomedical Sciences, Nanjing University, China, weighing 25 ± 5 g. The animals were housed in a temperature-controlled room with a 12 h light/dark cycle and given ad libitum food and water. Male mice were randomly divided into the following 6 experimental groups. (a) wild-type group (n = 6), (b) APP/PS1 group (n = 6), (c) HYP (20 mg/kg group) (n = 7), (d) HYP (40 mg/kg) group (n = 8), (e) HYP (80 mg/kg) group (n = 8) and (f) memantine (MEM) (10 mg/kg) positive control group (n = 8). […]

APP/PS1 mice [4] = test: Western blot of Bcl-2, Bax and cyto-c in cortex and hippocampus lysates; assay type: in vivo; settings: 8 weeks of HYP treatment vs APP/PS1 untreated group
Method: as §1

HT22 cells [5] = test: Cytotoxicity (MTT) assay; assay type: cell-based
Method: Cytotoxicity was assessed using the MTT (5.0 mg/mL) assay. 4 × 10^3 HT22 cells per well were seeded in 96-well plates. After overnight incubation, cells were treated with Aβ aggregates (30 μM) for 48 h with or without the presence of HYP (20–80 μM). Cells were treated with DMSO as a control. Subsequently, MTT (10 μL) was added to each well for 4 h, followed by the addition of 100 μL of lysis buffer (10% SDS in 0.01 mol/L hydrochloric acid) and overnight incubation. The absorbance was measured at 570 nm the next day. The formula was calculated as a percentage of cell viability: Cell viability (%) = A (treatded) / A (control) × 100%. Data were obtained from three independent experiments in triplicate.

HT22 cells [6] = test: Mitochondrial membrane potential by JC-1; assay type: cell-based
Description: The mitochondrial membrane potential of HT22 stained with 5,5′,6,6′-tetrachloro-1,1′,3,3′-tetraethylbenzimidazolyl cobalt iodide (JC-1) was observed by laser scanning confocal microscopy.

HT22 cells [7] = test: Western blot of Bcl-2, Bax and cyto-c in HT22 cells; assay type: cell-based; settings: HT22 cells co-treated with Aβ aggregates 30 μM and HYP, 24 h
Method: After HYP treatment, the cells were lysed with RIPA. Protein concentrations were determined by Bio-Rad protein assay (Bio-Rad Laboratories, CA, USA). After electrophoretic separation, the gels were blotted and stained with primary antibodies. Binding of antibodies was visualized with peroxidase-coupled secondary antibodies using ECL Western Blotting detection reagents (Invitrogen, Scotland, UK). Band intensities were quantified using ImageJ software. Data were obtained from three independent experiments.

O=c1c(O[C@@H]2O[C@H](CO)[C@H](O)[C@H](O)[C@H]2O)c(-c2ccc(O)c(O)c2)oc2cc(O)cc(O)c12 [HYP, Quercetin-3-O-β-D-galactopyranoside]
intracellular level of HYP (HT22 cells [1]): increased upon the escalating concentration of HYP
level of different form of Aβ ([2]; HT22 cells incubated with exogenous Aβ for 24 h): lowered the level of different form of Aβ
endogenous level of Aβ oligomers, Aβ fibrils and total Aβ (1–16) ([2]; HT22 cells without exogenous Aβ): lowered the endogenous level of Aβ Oligomers (A11), Aβ Fibrils (mOC87) and total Aβ (1–16) (6E10)
level of BACE1 and APP-β proteins (APP/PS1 mice [3]): reduced the level of APP hydrolysis pathway-associated proteins such as BACE1 and APP-β
level of Bax, cyto-c, Bcl-2 and Bax/Bcl-2 ratio (APP/PS1 mice [4]): a decrease in the level of both Bax and cyto-c, an increase in Bcl-2 expression, and a reduction in the Bax/Bcl-2 ratio
cellular toxicity of HYP alone (MTT) (HT22 cells [5]; HYP 20–80 μM): no obvious cellular toxicity was observed
cell viability with aggregated Aβ co-treatment (MTT and flow cytometry) (HT22 cells [5]; HYP 20–80 μM + aggregated Aβ 30 μM): increased the cell viability in a dose-dependent manner
mitochondrial membrane potential (ratio of aggregated and monomeric JC-1) (HT22 cells [6]; Aβ aggregates + HYP 20–80 μM, 24 h): rescue the loss of mitochondrial membrane potential induced by Aβ aggregates in a dose-dependent manner
mitochondrial membrane potential (JC-1) (HT22 cells [6]; HYP alone): no effect
ratio of Bax / Bcl-2 and level of cyto-c (HT22 cells [7]): ratio of Bax / Bcl-2 was decreased with the reduction in the level of cyto-c
